Here are results for five substances from patent US12668803B2, “Glypican-3-specific modified aptamer and use thereof” (APTAMER SCIENCES INC., priority 2019, dated 2026).

The subject of data set [1] is Huh 7 cells. The data set can be described thus: Cell binding analysis of Cy5-labeled aptamers (FACS). Type of data set: cell-based. The conditions noted are these: 25 nM aptamer, 12-10 and truncated aptamers, FIG. 6. The method, then:
The 12-10 aptamer and 5 aptamer libraries prepared by truncating the 12-10 aptamer at various lengths [12-10 (40-mer), 12-12 (35-mer), 12-11 (29-mer), 12-13 (24-mer), 12-14 (23-mer), 12-15 (18-mer)] were subjected to cell binding analysis. Each aptamer sequence was labeled with Cy5 at the 5′ end thereof according to the method of Example 1-1. Huh 7 cells (ATCC, Rockville, MD, USA) were seeded at a density of 2×10^6/mL in a 100 mm^2 culture plate, and cultured using a DMEM medium (Gibco, Grand Island, NY, USA) containing 10% FBS (Gibco, Grand Island, NY, USA) and 1% antibiotics (penicillin/streptomycin) under conditions of 5% CO2 and 37° C. 5 μM of the aptamer stock was mixed with 5×SB18 buffer to prepare the aptamer at a concentration of 4 μM, and heated at 95° C. for 5 min, and then cooled at room temperature for 15 min or more. 4 μM of the aptamer was diluted with KRPH buffer (20 mM HEPES, 5 mM KH2PO4, 1 mM MgSO4, 1 mM CaCl2, 136 mM NaCl, 4.7 mM KCl, pH 7.4) at a concentration of 25 nM. The culture medium was removed from the cultured cells, and 4 mL of phosphate-buffered saline (PBS) was added thereto, followed by washing, and then 4 mL of PBS was removed. 4 mL of cold PBS or warm PBS was added, and cells were scraped using a scraper, and collected in tubes, followed by pipetting. The cells were divided and added to fluorescence-activated cell sorting (FAC) tubes according to the number of samples, followed by centrifugation at 4° C. and 2000 rpm for 4 min. After removing the supernatant, each 500 μL of 25 nM aptamer and control (31-08 (40-mer) aptamer) were added to […] of KRPH buffer, followed by pipetting. The tube was covered with foil to block the light, followed by incubation at 4° C. for 30 min. After incubation, centrifugation was performed at 4° C. and 2000 rpm for 4 min, and the supernatant was removed. 2 mL of cold 1×PBS was added, washed, centrifuged at 4° C. and 2000 rpm for 4 min, and the supernatant was removed. This process was repeated three times. […] Cy5 was measured at […]. […]

The subject of data set [2] is Huh-7 cells. The data set can be described thus: Cellular internalization analysis (microscopy, lysotracker/DAPI). Type of data set: cell-based. The method, then:
5 aptamer libraries prepared by truncating the 12-10 aptamer at various lengths [12-12 (35-mer), 12-11 (29-mer), 12-13 (24-mer), 12-14 (23-mer), and 12-15 (18-mer)] were subjected to cellular internalization analysis. In detail, a 6-well plate was prepared, and a round cover glass was placed in the 6-well plate. Huh-7 cells were cultured in the 6-well plate according to the method of Example 1-3. 5 μM of the aptamer stock was mixed with 5×SB18 buffer to prepare the aptamer at a concentration of 4 μM, and heated at 95° C. for 5 min, and then cooled at room temperature for 15 min or more. The next day, the medium was removed from the cultured cells, and a serum-free medium was added thereto, and cultured under conditions of 37° C. and 5% CO2 for 1 hr. The serum-free medium was removed, and then the cells were washed with 2 mL of 1×PBS. KRPH buffer was added, and cultured under conditions of 37° C. and 5% CO2 for 1 hr. 4 μM aptamer was diluted to 25 nM, and then cultured under conditions of 37° C. and 5% CO2 for 1 hr or 4 hr. Washing was repeated three times with 2 mL of 1×PBS. Washing was performed in a shaker at room temperature for 10 min while blocking the light. Thereafter, the cells were fixed by treatment with 4% paraformaldehyde at 4° C. for 10 min. Washing was repeated three times with 2 mL of 1×PBS. A permeabilization solution (0.2% Triton X-100 in 1×PBS) was added, followed by incubation at room temperature for 15 min. Washing was repeated three times with 2 mL of 1×PBS. A blocking solution (3% BSA, 1×PBS) was added, followed by incubation under conditions of 37° C. and 5% CO2 for 20 min. Washing was performed once with 2 mL of 1×PBS. Treatment with a blocking solution containing 150 nM lysotracker was performed, followed by incubation under conditions of 37° C. and 5% CO2 for 1 hr. Washing was repeated three times with 2 mL of 1×PBS, and staining with 4′,6-diamidino-2-phenylindole (DAPI) was performed. The cover glass was carefully removed and […]. […]

Data set [3] is described as follows: Serum stability analysis (urea PAGE). Type of data set: in vitro ADME, human. The conditions noted are these: 100% human serum, 37° C., FIG. 28. The method, then:
To examine whether 12-12, combi 5 aptamer, combi 4 and combi 5 modified aptamers bound with three or five gemcitabines are stable in the human serum, serum stability was analyzed. In detail, 10 μL of […] was added to 100% human serum, followed by incubation at 37° C. for 0 hr, 1 hr, 3 hr, 6 hr, 12 hr, and 24 hr. After incubation, 5 μL of […] was added, and distilled water was added to a volume of 250 μL. 250 μL of phenol:chloroform:isoamyl alcohol (25:24:1) was added in the equal volume, followed by stirring. Each sample was centrifuged at 16000×g for 10 min. The supernatant was transferred to a new tube, and completely dried. The resultant was diluted with 5× sample buffer and distilled water, and boiled at 95° C. for 5 min, and cooled. The sample was separated by urea PAGE (Polyacrylamide gel Electrophoresis) at 220 V for 25 min, and then stained with SYBR gold and examined using a Gel Doc™ EZ system.

For data set [4], the system named is hepatoma specific cells expressing high levels of GPC3 (HepG2, Hep3B). As to the kind of experiment: Cellular internalization of combi 6 to combi 10 (FIG. 17B). Type of data set: cell-based.
Data set [5] deals with HepG2. The data set can be described thus: Cytotoxicity (CCK-8) of 12-12 G(3). Type of data set: cell-based. The method, then: (§1) In detail, HepG2, Hep3B, and A431 cells (ATCC, Rockville, MD, USA) were each seeded in a 96-well plate at a density of 1×10^4/mL and cultured using a DMEM (Gibco, Grand Island, NY, USA) medium containing 10% FBS (Gibco, Grand Island, NY, USA) and 1% antibiotics (penicillin/streptomycin) under conditions of 5% CO2 and 37° C. The next day, the aptamer stock (100 μM) was mixed with 5×SB18 buffer to prepare the stock at a concentration of 80 μM, and heated at 95° C. for 5 min, and then cooled at room temperature for 15 min or more. The medium was removed from the cultured cells, and 100 μL of a serum-free medium was added thereto, and cultured under conditions of 37° C. and 5% CO2 for 1 hr. The serum-free medium was removed, and then the cells were washed with 100 μL of 1×PBS. 100 μL of KRPH buffer was added, and cultured under conditions of 37° C. and 5% CO2 for 1 hr. The aptamer was diluted with KRPH buffer to 2-fold of the desired concentration, and added to a 96-well plate at 1× concentration, and cultured under conditions of 37° C. and 5% CO2 for 4 hr. After treatment with the aptamer, the KRPH buffer was removed, and then 100 μL of culture medium was added and cultured under conditions of 37° C. and 5% CO2 for 6 days. 6 days later, 10 μL of a CCK-8 kit solution was added to each well, and then cultured under conditions of 37° C. and 5% CO2 for 3 hr. Cell death levels were examined at […] using a microplate reader.

For data set [6], the system named is squamous cell carcinoma cell A431. As to the kind of experiment: Cytotoxicity (CCK-8) of 12-12 G(3). Type of data set: cell-based. The method, then:
as §1

The test system of data set [7] is Hep3B. As to the kind of experiment: Cellular internalization of chemically optimized aptamers (FIG. 17A). The conditions noted are these: combi 1 to combi 5, FIG. 17A. The data set is classed as cell-based.

Regarding “12-12: SEQ ID NO: 6, 35-mer truncated from 2428-12-10, idT at 3′ end (GNGAANGCGNNGAANNANGNCCCNNCAGNCANCAC; modified base n undefined, 3' idT per name, further chemistry not given here)”, the cell binding ability entry in data set [1] is listed as “most excellent cell binding ability”. Besides, the cellular internalization entry in data set [2] (25 nM, truncated aptamers, FIG. 7) is on record as “most excellent cellular internalization”. The “half-life in the human serum” value in data set [3] turned out to be 6 h.
For the substance “Combi 9: SEQ ID NO: 18, chemically optimized 12-12 aptamer (G_{Me}nG_{Me}A_{F}A_{F}nGCGnnG,A_{F}AnnAnGnC_{F}C_{F}C_{F}nnCAG_{Me}nCAnCrAyCr; 2'-F and 2'-OMe units, modified base n undefined, 3' idT, as printed in the source, key not given here)”, the cellular internalization result in data set [4] is listed as “highest cellular internalization”.
“12-12 G(3) (DNA GNGAANGCGNNGAANNANGNSSSNNCAGNCANCAC; three gemcitabines, BzdU and 3' inverted dT, positions not given here)”: the “cellular internalization over time” value in data set [2] (1 hr, 2 hr, and 4 hr after the start of internalization, FIG. 11) is “most excellent cellular internalization”. In data set [2] (vs 12-12 and scrambled 12-12, FIG. 10), the cellular internalization result is recorded as “most excellent cellular internalization”. In addition, the HepG2-killing effects result in data set [5] (10 nM to 1 μM, vs 12-12 or 30 nM to 3 μM gemcitabine, FIG. 12) is on record as “excellent HepG2-killing effects”; in data set [5] (31.75 nM to 2 μM, vs same concentrations of 12-12 or gemcitabine, FIG. 13), “excellent HepG2-killing effects”. The “cell-killing effects on A431” value in data set [6] (10 nM to 1 μM, FIG. 12) is on record as “no cell-killing effects”; in data set [6] (31.75 nM to 2 μM, FIG. 13) it was “no cell-killing effects”.
Take “Combi 8: SEQ ID NO: 17, chemically optimized 12-12 aptamer (G_{Me}nG_{Me}A_{F}A_{F}nGCGnnG_{F}A_{F}A_{Me}nnA_{Me}nWnC_{F}C_{F}C_{F}nnCAG_{Me}nCAnC_{F}A_{Me}C_{F}; 2'-F and 2'-OMe units, modified bases n, W undefined, 3' idT, as printed in the source, key not given here)”: the cellular internalization result in data set [4] is “highest cellular internalization”.
As for “Combi 4: SEQ ID NO: 13, chemically optimized 12-12 aptamer (G_{Me}nG_{Me}A_{F}A_{F}nGCGnnG_{F}A_{F}A_{F}nnA_{F}nGYC_{F}C_{F}C_{F}nnCAG_{Me}nCAnCAMC_{F}; 2'-F and 2'-OMe units, modified bases n, Y, M undefined, 3' idT, as printed in the source, key not given here)”, in data set [7], the Hep3B cellular internalization entry is recorded as “excellent cellular internalization”.
